# Assay results reported in ChEMBL document CHEMBL4152250, “Antibacterial and anti-TB tat-peptidomimetics with improved efficacy and half-life” (Eur J Med Chem, 2018).
# Numbered stars: 1 amine (or outer) side, 2 acyl side, 3 side chain; on linkers, the order of the positions; unused ones are H or OH. Square brackets hold non-standard residues; d marks the D form. Peptide text beside a SMILES is read from it. Pro(N-(CH2)3Gua,cis-4-NH-) = N=C(N)NCCCN1C[C@@H](N[*:1])C[C@H]1C(=O)[*:2]; Pro(cis-4-guanidino) = NC(N)=N[C@@H]1CN[C@H](C(=O)O)C1; X1 = NCCCN1C[C@@H](N[*:1])C[C@H]1C(=O)[*:2]; βAla = NCCC(=O)O
# Legend:
# [1] = system: Pseudomonas aeruginosa; test: Antibacterial activity against Pseudomonas aeruginosa NCIM 2036 after 8 hrs by serial dilution method; type: functional, organism-based; settings: NCIM 2036, 8 h
# [2] = Cytotoxicity against human HeLa cells assessed as cell viability at 1 to 10 uM after 24 hrs by MTT assay relative to control; type: cell-based; settings: read-out: Activity
# [3] = system: Mycobacterium tuberculosis; test: Antitubercular activity against active stage of Mycobacterium tuberculosis H37Ra ATCC 25177 after 8 days by XRMA; type: functional, organism-based; settings: H37Ra ATCC 25177, 192 h
# [4] = system: Bacillus subtilis; test: Antibacterial activity against Bacillus subtilis NCIM 2079 after 12 hrs by serial dilution method; type: functional, organism-based; settings: NCIM 2079, 12 h
# [5] = system: Staphylococcus aureus; test: Antibacterial activity against Staphylococcus aureus NCIM 2010 after 12 hrs by serial dilution method; type: functional, organism-based; settings: NCIM 2010, 12 h
# [6] = system: Escherichia coli; test: Antibacterial activity against Escherichia coli NCIM 2688 after 8 hrs by serial dilution method; type: functional, organism-based; settings: NCIM 2688, 8 h
# [7] = system: Mycobacterium tuberculosis; test: Antitubercular activity against dormant stage of Mycobacterium tuberculosis H37Ra ATCC 25177 after 12 days by XRMA; type: functional, organism-based; settings: H37Ra ATCC 25177, 288 h
# [8] = system: Enterobacter sp.; test: Antibacterial activity against Enterobacter sp. NCIM 5392 after 8 hrs by serial dilution method; type: functional, organism-based; settings: NCIM 5392, 8 h
# [9] = system: Staphylococcus epidermidis; test: Antibacterial activity against Staphylococcus epidermidis NCIM 5270 after 12 hrs by serial dilution method; type: functional, organism-based; settings: NCIM 5270, 12 h
SMILES,IC50 [1],MIC [1],"viability at 24 h, up to 10 µM [2]",IC50 [3],MIC [3],IC50 [4],MIC [4],IC50 [5],MIC [5],IC50 [6],MIC [6],IC50 [7],MIC [7],IC50 [8],MIC [8],IC50 [9],MIC [9]
CC(=O)N[C@@H](Cc1ccccc1)C(=O)NCC(=O)N[C@@H](CCCNC(=N)N)C(=O)N[C@@H](CCCCN)C(=O)N[C@@H](CCCCN)C(=O)N[C@@H](CCCNC(=N)N)C(=O)N[C@@H](CCCNC(=N)N)C(=O)N[C@@H](CCC(N)=O)C(=O)N[C@@H](CCCNC(=N)N)C(=O)N[C@@H](CCCNC(=N)N)C(=O)N1C[C@@H](NC(=N)N)C[C@H]1C(=O)NCCC(N)=O (Ac-FGRKKRRQRR[Pro(cis-4-guanidino)][βAla]-NH2),70 nM,10.3 µM,≥ 80%,9.7 µM,32.1 µM,149 nM,7.96 µM,86 nM,10.9 µM,92 nM,6.73 µM,910 nM,23.9 µM,,,,
"CC(=O)N[C@@H](Cc1ccccc1)C(=O)NCC(=O)N[C@@H](CCCNC(=N)N)C(=O)N[C@@H](CCCCN)C(=O)N[C@@H](CCCCN)C(=O)N[C@H]1C[C@@H](C(=O)N[C@@H](CCCNC(=N)N)C(=O)N[C@@H](CCC(N)=O)C(=O)N[C@@H](CCCNC(=N)N)C(=O)N[C@@H](CCCNC(=N)N)C(=O)N[C@@H](CCCNC(=N)N)C(=O)NCCC(N)=O)N(CCCNC(=N)N)C1 (Ac-FGRKK[Pro(N-(CH2)3Gua,cis-4-NH-)]RQRRR[βAla]-NH2)",5 nM,2.67 µM,≥ 80%,3 µM,20.1 µM,45 nM,14.1 µM,23 nM,5.25 µM,18 nM,7.25 µM,1280 nM,13.8 µM,14 nM,4.7 µM,14 nM,8.95 µM
CC(=O)N[C@@H](Cc1ccccc1)C(=O)NCC(=O)N[C@@H](CCCNC(=N)N)C(=O)N[C@@H](CCCCN)C(=O)N[C@@H](CCCCN)C(=O)N1C[C@@H](NC(=N)N)C[C@H]1C(=O)N[C@@H](CCCNC(=N)N)C(=O)N[C@@H](CCC(N)=O)C(=O)N[C@@H](CCCNC(=N)N)C(=O)N[C@@H](CCCNC(=N)N)C(=O)N[C@@H](CCCNC(=N)N)C(=O)NCCC(N)=O (Ac-FGRKK[Pro(cis-4-guanidino)]RQRRR[βAla]-NH2),47 nM,6.53 µM,≥ 80%,4.45 µM,28.6 µM,344 nM,29.9 µM,104 nM,8.65 µM,92 nM,13.5 µM,2510 nM,33.9 µM,,,,
"CC(=O)N[C@@H](Cc1ccccc1)C(=O)NCC(=O)N[C@H]1C[C@@H](C(=O)N[C@@H](CCCCN)C(=O)N[C@@H](CCCCN)C(=O)N[C@@H](CCCNC(=N)N)C(=O)N[C@H]2C[C@@H](C(=O)N[C@@H](CCC(N)=O)C(=O)N[C@@H](CCCNC(=N)N)C(=O)N[C@@H](CCCNC(=N)N)C(=O)N[C@H]3C[C@@H](C(=O)NCCC(N)=O)N(CCCNC(=N)N)C3)N(CCCNC(=N)N)C2)N(CCCNC(=N)N)C1 (Ac-FG[Pro(N-(CH2)3Gua,cis-4-NH-)]KKR[Pro(N-(CH2)3Gua,cis-4-NH-)]QRR[Pro(N-(CH2)3Gua,cis-4-NH-)][βAla]-NH2)",9.8 nM,1.82 µM,≥ 80%,8.4 µM,26.1 µM,10.4 nM,2.81 µM,10.4 nM,9.05 µM,18 nM,7.58 µM,2200 nM,22.8 µM,24 nM,8.01 µM,6.5 nM,9.44 µM
CC(=O)N[C@@H](Cc1ccccc1)C(=O)NCC(=O)N1C[C@@H](NC(=N)N)C[C@H]1C(=O)N[C@@H](CCCCN)C(=O)N[C@@H](CCCCN)C(=O)N[C@@H](CCCNC(=N)N)C(=O)N1C[C@@H](NC(=N)N)C[C@H]1C(=O)N[C@@H](CCC(N)=O)C(=O)N[C@@H](CCCNC(=N)N)C(=O)N[C@@H](CCCNC(=N)N)C(=O)N1C[C@@H](NC(=N)N)C[C@H]1C(=O)NCCC(N)=O (Ac-FG[Pro(cis-4-guanidino)]KKR[Pro(cis-4-guanidino)]QRR[Pro(cis-4-guanidino)][βAla]-NH2),92 nM,12.6 µM,≥ 80%,10.6 µM,36.3 µM,135 nM,13.2 µM,227 nM,20.5 µM,105 nM,11.8 µM,500 nM,21.1 µM,,,,
CC(=O)N[C@@H](Cc1ccccc1)C(=O)NCC(=O)N1C[C@@H](NC(=N)N)C[C@H]1C(=O)N[C@@H](CCCCN)C(=O)N[C@@H](CCCCN)C(=O)N[C@@H](CCCNC(=N)N)C(=O)N1C[C@@H](NC(=N)N)C[C@H]1C(=O)N[C@@H](CCC(N)=O)C(=O)N1C[C@@H](NC(=N)N)C[C@H]1C(=O)N[C@@H](CCCNC(=N)N)C(=O)N1C[C@@H](NC(=N)N)C[C@H]1C(=O)NCCC(N)=O (Ac-FG[Pro(cis-4-guanidino)]KKR[Pro(cis-4-guanidino)]Q[Pro(cis-4-guanidino)]R[Pro(cis-4-guanidino)][βAla]-NH2),63 nM,26 µM,≥ 80%,7.44 µM,53.9 µM,143 nM,15.1 µM,92 nM,5.59 µM,223 nM,27.7 µM,1910 nM,29.4 µM,,,,
CC(=O)N[C@@H](Cc1ccccc1)C(=O)NCC(=O)N[C@H]1C[C@@H](C(=O)N[C@@H](CCCCN)C(=O)N[C@@H](CCCCN)C(=O)N[C@@H](CCCNC(=N)N)C(=O)N[C@H]2C[C@@H](C(=O)N[C@@H](CCC(N)=O)C(=O)N[C@@H](CCCNC(=N)N)C(=O)N[C@@H](CCCNC(=N)N)C(=O)N[C@H]3C[C@@H](C(=O)NCCC(N)=O)N(CCCN)C3)N(CCCN)C2)N(CCCN)C1 (Ac-FG[X1]KKR[X1]QRR[X1][βAla]-NH2),8.2 nM,2.32 µM,≥ 80%,4.5 µM,43 µM,12.4 nM,4.16 µM,10.6 nM,3.02 µM,16.5 nM,3.52 µM,2240 nM,26.3 µM,12.4 nM,4.65 µM,33 nM,7.25 µM
CC1(C)S[C@@H]2[C@H](NC(=O)[C@H](N)c3ccccc3)C(=O)N2[C@H]1C(=O)O [AMPICILLIN],436 nM,12.5 µM,,,,1000 nM,29.5 µM,100 nM,2.8 µM,146 nM,4.17 µM,,,,,,
NC[C@H]1O[C@H](O[C@H]2[C@H](O)[C@@H](O[C@H]3O[C@H](CO)[C@@H](O)[C@H](N)[C@H]3O)[C@H](N)C[C@@H]2N)[C@H](O)[C@@H](O)[C@@H]1O [KANAMYCIN],49 nM,1.01 µM,,,,135 nM,2.8 µM,300 nM,> 61.9 µM,162 nM,3.3 µM,,,,,,
NC(=O)c1cnccn1 [PYRAZINAMIDE],,,,,> 100 µM,,,,,,,,> 100 µM,,,,
CO[C@H]1/C=C/O[C@@]2(C)Oc3c(C)c(O)c4c(O)c(c(/C=N/N5CCN(C)CC5)c(O)c4c3C2=O)NC(=O)/C(C)=C\C=C\[C@H](C)[C@H](O)[C@@H](C)[C@@H](O)[C@@H](C)[C@H](OC(C)=O)[C@@H]1C [RIFAMPIN],,,,,0.97 µM,,,,,,,,0.91 µM,,,,
